Data published in patent US20250170143A1, “METHODS OF TREATING OCULAR FIBROTIC PATHOLOGIES” (Mayo Foundation for Medical Education and Research, priority 2022, published 2025).
Read-outs that look alike come from different tables or passages of the source.

Experiments:
ARPE-19 cells [1] = assay: Fibronectin deposition assay in TGFβ-stimulated ARPE-19 cells; type: cell-based, human; conditions: for IC50: ARPE-19 cells stimulated with TGFβ, incubated 96 hours
Experimental: ARPE-19 cells were plated into 96-well plates (10,000 cells/well) and allowed to attach. Media was removed and replaced with the media specified in the “Cell Culture” section above, without FBS. Cells were treated for four days±TGFβ (10 ng/mL) and 10 μM loxapine. Cells were fixed with 10% neutral buffered formalin (Sigma-Aldrich) for 15 minutes. Cells were permeabilized with 0.25% Triton X-100 (Sigma-Aldrich) and blocked with 1% BSA for 1 hour. Cells were incubated with mouse monoclonal IgG3 primary antibodies against fibronectin (Santa Cruz Biotechnology), which were diluted 1:400 in 0.25% Triton X-100 (Sigma-Aldrich) with 1% BSA. Cells were incubated with primary antibodies either in 4° C. overnight or at room temperature for 2 hours. Cells were washed with PBS (Gibco), then incubated for 1 hour with Alexa Fluor® 488 donkey anti-mouse IgG (H+L) secondary antibodies (Life Technologies) and DAPI (Thermo Fisher Scientific), which were each diluted 1:1000 in 0.25% Triton X-100 (Sigma-Aldrich) with 1% BSA. Cells were washed again with PBS (Gibco). Immunofluorescence was measured using a Cytation 5 imaging reader (BioTek).
The compounds of this Example were tested using the fibronectin deposition assay described in Example 1. In brief, ARPE-19 cells were stimulated with TGFβ+/−the indicated concentration of each compound. Incubated 96 hours Fixed and immunostained for fibronectin.
In brief, ARPE-19 cells were stimulated with TGFβ+/−the indicated concentration of each compound. Incubated 96 hours, fixed and immunostained for fibronectin.

ARPE-19 cells [2] = assay: Fibronectin deposition in ARPE-19 cells stimulated with a cocktail of profibrotic ligands; type: cell-based, human; conditions: TGF-β1, TGF-β2, TNF-α, FGF-β, PDGF-CC all at 10 ng/mL, 10 μM solupine
Experimental: ARPE-19 cells were cultured as described in FIGS. 4-6 and fibronectin was measured after stimulating the cells with a combination of profibrotic soluble factors including: T1=TGF-β1, T2=TGF-β2, Tα=TNF-α, Fβ=FGF-β, PC=PDGF-CC, (all at 10 ng/mL). +/−10 μM solupine. N=3. Results: solupine maintains its efficacy at blocking RPE cell fibronectin deposition when profibrotic factors are combined in a cocktail.

mouse eye = assay: Toxicology scoring of mouse eye injected with solupine; type: in vivo; conditions: mice, 14 days
Experimental: Mice were injected with 1 μL of PBS (FIG. 17A), 1 μL PBS containing 10 μg/0.05 mL solupine (FIG. 17B), or 1 μL PBS containing 30 μg/0.05 mL solupine (FIG. 17C). The eyes were then analyzed by a pathologist and scored for the indicated observations of ocular toxicities. over the course of 14 days. Work was performed under contract with Labcorp. N=3-6 mice/group.

[3] = tested on: Human conjunctival fibroblasts; assay: Fibronectin deposition by conjunctival fibroblasts; type: cell-based; conditions: conditions of FIGS. 4-6, indicated concentrations of solupine
Experimental: Human conjunctival fibroblasts were cultured under the same conditions described in FIGS. 4-6 and fibronectin deposition was measured after treating with the indicated concentrations of solupine. N=3.

ARPE-19 cells [4] = assay: Solupine functional stability (stored saline stock vs fresh, FGF-β proliferation readout); type: cell-based, human; conditions: dissolved in saline, opaque sealed container, 4° C.; potency compared with fresh stock in FGF-β proliferation
Experimental: A powder stock of solupine was dissolved in saline and stored in an opaque, sealed container at 4° C. for 90 days. The potency and efficacy of this stored stock was then compared to freshly solubilized stock of solupine dissolved in saline. ARPE-19 cells were cultured for 4 days with FGF-β and the indicated concentration of fresh or 90-day-old solupine stock. Cells were then assayed for proliferation as described herein for FIGS. 10 and 11. N=3. Results: solupine stock is functionally stable for at least 90 days under these conditions.

ARPE-19 cells [5] = assay: PDGF-CC stimulated proliferation; type: cell-based, human; conditions: ARPE-19, 10 ng/mL PDGF-CC; compared with methotrexate
Experimental: Effect of methotrexate, solupine, sertindole, penfluridol, pimozide, and fluspirilene, on FGF-β stimulated proliferation was determined. Methods: ARPE-19 cells were seeded into 96-well plates (1,000 cells/well) and incubated for 6 h at 37° C. After, media was removed and exchanged for media containing 0% fetal bovine serum+/−10 ng/mL FGF-β, and the indicated concentration of compound. Compound concentrations were selected based on the potencies observed in FIGS. 4A-6B, and 9A-9C. After the indicated number of hours, cells were fixed in 4% formalin, and DAPI stained. Cells were then imaged using an automated microscope (Biotek Cytation5) and the number of DAPI nuclei were quantified using onboard software (Gen5). Raw cells/field of view are plotted. N=3. […] FGF-β levels are elevated in patients with PVR.
Effect of methotrexate and solupine on PDGF-CC stimulated proliferation was determined. Methods: experiments were carried out as described in Example 6, except 10 ng/mL PDGF-CC was used to stimulate proliferation. […] PDGF-CC levels are elevated in patients with PVR.

[6] = tested on: profibrotic gene expression (COL1A1, ACTA2, FN1) in ARPE-19 cells; assay: Profibrotic gene expression by qPCR in ARPE-19 cells treated ±TGFβ; type: cell-based, human; conditions: ARPE-19 + TGFβ (10 ng/mL), 24 hours; antagonists 10 μM, pramipexole 1 μM; compared to TGFβ only
Experimental: ARPE-19 cells were plated into 12 well plates (100,000 cells/well) and allowed to attach. Media was removed and replaced with the media specified in the “Cell Culture” section above, minus FBS. Cells were treated for 24 hours±TGFβ (10 ng/mL), 1 μM pramipexole, and 10 μM loxapine. RNA was isolated using the RNeasy Plus Mini Kit (Qiagen) and the manufacturer's protocol. Isolated RNA was converted to cDNA using the SuperScript VILO cDNA Synthesis Kit (Invitrogen) and the PTC-200 Peltier Thermal Cycler (MJ Research). Quantitative PCR (qPCR) was performed using FastStart Essential DNA Green Master (Roche) and LightCycler 96 (Roche).
After identifying the preferential expression of DRD2 in ARPE-19 cells, the regulatory effects of these receptors on fibrotic activation were elucidated. As to D2 dopamine receptor (FIG. 2A-B), RNA isolation and qPCR were used to measure the transcript levels of fibrotic markers in ARPE-19 cells treated±TGFβ, pramipexole (D2 agonist), and loxapine (D2 antagonist). […] In experiments combining pramipexole and loxapine along with TGFβ negates the activity of the molecules alone, confirming their activity is being driven by their interaction with the D2 receptor (FIG. 2B).
The effect of solnitropine, solupine, and loxapine on the expression of profibrotic genes COL1A1 and FN1 were evaluated as described in Example 1 (FIGS. 7A and 7B). In brief, ARPE-19 cells were treated±TGFβ in the presence of either loxapine, solnitropine, or solupine. Gene expression was measured by qPCR on RNA isolated from the treated cells 24 h after treatment.

[7] = Homo sapiens, fibronectin deposition, read-out: IC50
[8] = fibronectin deposition, read-out: IC50
[9] = Homo sapiens, read-out: IC50 values (fibronectin deposition)

IC50 (ARPE-19 cells [1]; [7]) [µM]	Structure (SMILES)	further results
> 10	CCc1cc(Cl)c(OC)c(C(=O)NC[C@@H]2CCCN2CC)c1O [eticlopride]	–
≤ 5	O=C(CCCN1CCC(n2c(=S)[nH]c3ccccc32)CC1)c1ccc(F)cc1 [timiperone]	–
> 10	OCCN1CCN(CCCN2c3ccccc3Sc3ccc(Cl)cc32)CC1 [perphenazine]	–
5 to 10	CCN1CCN(c2cc(-c3ccc(F)cc3)c3c(n2)CCCCCC3)CC1 [blonanserin]	–
> 10	CN(Cc1cnc2nc(N)nc(N)c2n1)c1ccc(C(=O)N[C@@H](CCC(=O)O)C(=O)O)cc1 [methotrexate]	–
≤ 5	O=C(CCCN1CCC(n2c(O)nc3ccccc32)CC1)c1ccc(F)cc1 [benperidol]	–
> 10	CCN1CCC[C@H]1CNC(=O)c1c(O)c(Cl)cc(Cl)c1OC [raclopride]	–
≤ 5	O=c1[nH]c2ccccc2n1C1CCN(CCCC(c2ccc(F)cc2)c2ccc(F)cc2)CC1 [pimozide]	–
≤ 5	O=C1[C@@H]2[C@H]3CC[C@H](C3)[C@@H]2C(=O)N1C[C@@H]1CCCC[C@H]1CN1CCN(c2nsc3ccccc23)CC1 [lurasidone]	–
–	CN1CCN(CCCN2c3ccccc3Sc3ccc(C(F)(F)F)cc32)CC1 [trifluoperizine]	IC50 (ARPE-19 cells [1]; [8]): > 10 µM
≤ 5	O=C1NCCN1CCN1CCC(c2cn(-c3ccc(F)cc3)c3ccc(Cl)cc23)CC1 [sertindole]	–
≤ 5	CN1CCN(C2=Nc3ccccc3Oc3ccc(Cl)cc32)CC1 [loxapine]	–
> 10	CCN1CCCC1CNC(=O)c1cc(S(N)(=O)=O)ccc1OC (stereo not shown) [sulpiride]	–
–	CN1CCN(C2=Nc3cc(O)ccc3Oc3ccc(Cl)cc32)CC1 [8-OH-loxapine]	IC50 (ARPE-19 cells [1]; [8]): > 10 µM
≤ 5	OC1(c2ccc(Cl)c(C(F)(F)F)c2)CCN(CCCC(c2ccc(F)cc2)c2ccc(F)cc2)CC1 [penfluridol]	–
≤ 5	c1ccc2c(c1)Oc1cccnc1N=C2N1CCNCC1 [solnitropine]	IC50 (ARPE-19 cells [1]; [9]): ≤ 5 µM; expression of COL1A1 [6]: significantly reduced; expression of FN1 [6]: significantly reduced
> 10	CCN1CCCC1CNC(=O)c1cc(S(=O)(=O)CC)c(N)cc1OC (stereo not shown) [amisulpride]	–
–	O=C1CCc2ccc(OCCCCN3CCN(c4cccc(Cl)c4Cl)CC3)cc2N1 [aripiprazole]	fibronectin deposition (ARPE-19 cells [1]; ARPE-19, TGFβ, performed identically to FIGS. 4-6, N=3): blocks fibronectin deposition
–	Cc1cc2c(s1)Nc1ccccc1N=C2N1CCNCC1 [N-desmethyl olanzapine]	IC50 (ARPE-19 cells [1]; [8]): ≤ 5 µM
–	Clc1ccc2c(c1)N=C(N1CCNCC1)c1ccccc1N2 [N-desmethyl clozapine]	IC50 (ARPE-19 cells [1]; [8]): ≤ 5 µM
≤ 5	O=C1NCN(c2ccccc2)C12CCN(CCCC(c1ccc(F)cc1)c1ccc(F)cc1)CC2 [fluspirilene]	–
5 to 10	O=C(CCCN1CC=C(n2c(=O)[nH]c3ccccc32)CC1)c1ccc(F)cc1 [droperidol]	–
≤ 5	CN1CCC(=C2c3ccccc3CCc3sccc32)CC1 [pizotifen]	–
> 10	CCN1CCC[C@H]1CNC(=O)c1c(OC)ccc(Br)c1OC [remoxipride]	–

Structure (SMILES)	IC50 (ARPE-19 cells [1]; [7]) [µM]	further results
c1ccc2c(c1)Oc1sccc1N=C2N1CCNCC1 [solupine]	≤ 5	fibronectin deposition, cocktail of profibrotic ligands (ARPE-19 cells [2]): blocks fibronectin deposition; ocular toxicity scoring (mouse eye; eye injection 1 μL PBS containing 10 μg/0.05 mL solupine): No observable toxicity; ocular toxicity scoring (mouse eye; eye injection 1 μL PBS containing 30 μg/0.05 mL solupine): No observable toxicity; fibronectin deposition by conjunctival fibroblasts [3]: does not block fibronectin deposition; IC50 (ARPE-19 cells [1]; [9]): ≤ 5 µM; functional stability of stock (ARPE-19 cells [4]): at least 90 days; potency at blocking PDGF stimulated proliferation (ARPE-19 cells [5]): more potent than methotrexate; expression of COL1A1 [6]: significantly reduced; expression of FN1 [6]: significantly reduced
